Values of other authors as cited in patent US20110287117A1, “Adjuvant Therapy in the Treatment of Gouty Arthritis” (UNIVERSITY OF MEDICINE AND DENTISTRY OF NEW JERSEY, priority 2009, published 2011).

Conditions: in vivo

recombinant IL-6: recombinant interleukin 6 administered in a cited study
serum SU level: lowered
urinary secretion of uric acid: increased
